“Also recorded” adds a separate entry of the source. Like-named read-outs stand apart in the source and are kept apart here.
Assays:
hERG = hERG (Homo sapiens, UniProt Q12809); assay: PDSP competitive binding assay (safety/nuisance target)
Alpha2c = target: T1, Alpha2c (Homo sapiens, UniProt P18825); assay: PDSP competitive binding assay; details: 10 µM test article; read-out: Ki: primary assay inhibition of radioligand binding, Alpha2c
T1 construct: purchased NIMH Psychoactive Drug Screening Program (PDSP), University of North Carolina at Chapel Hill
T1 sequence (P18825 whole entry): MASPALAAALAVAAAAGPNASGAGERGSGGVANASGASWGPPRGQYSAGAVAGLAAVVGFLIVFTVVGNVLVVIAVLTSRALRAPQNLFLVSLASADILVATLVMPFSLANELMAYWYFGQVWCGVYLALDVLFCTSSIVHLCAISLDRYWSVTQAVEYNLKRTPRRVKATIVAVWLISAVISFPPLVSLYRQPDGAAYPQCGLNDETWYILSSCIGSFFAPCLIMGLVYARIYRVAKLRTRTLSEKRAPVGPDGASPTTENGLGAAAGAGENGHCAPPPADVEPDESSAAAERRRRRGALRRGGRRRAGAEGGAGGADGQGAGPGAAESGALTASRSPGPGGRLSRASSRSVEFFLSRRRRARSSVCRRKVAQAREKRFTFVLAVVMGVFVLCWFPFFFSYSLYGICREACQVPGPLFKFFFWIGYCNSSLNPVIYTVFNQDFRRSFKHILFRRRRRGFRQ

5HT2C = 5HT2C (Homo sapiens, UniProt P28335); assay: PDSP competitive binding assay; details: 10 µM test article; read-out: Ki: primary assay inhibition of radioligand binding, 5HT2C
Chain of 5HT2C (P28335 33-458): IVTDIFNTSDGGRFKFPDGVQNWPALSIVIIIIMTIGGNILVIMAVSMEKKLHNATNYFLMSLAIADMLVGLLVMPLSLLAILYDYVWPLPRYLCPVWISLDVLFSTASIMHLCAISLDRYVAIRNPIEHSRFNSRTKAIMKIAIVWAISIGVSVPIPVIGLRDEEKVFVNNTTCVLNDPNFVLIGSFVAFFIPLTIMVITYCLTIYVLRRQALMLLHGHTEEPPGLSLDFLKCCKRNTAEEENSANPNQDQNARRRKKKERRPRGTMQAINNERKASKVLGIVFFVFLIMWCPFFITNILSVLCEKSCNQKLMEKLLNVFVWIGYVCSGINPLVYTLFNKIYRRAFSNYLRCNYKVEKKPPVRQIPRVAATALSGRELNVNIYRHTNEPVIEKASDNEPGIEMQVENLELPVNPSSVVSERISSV

σ2R/TMEM97 = σ2R/TMEM97 (Homo sapiens, UniProt Q5BJF2); assay: Competition binding with [3H]-ditolylguanidine in presence of (+)-pentazocine (NIMH PDSP)
Chain of σ2R/TMEM97 (Q5BJF2 whole entry): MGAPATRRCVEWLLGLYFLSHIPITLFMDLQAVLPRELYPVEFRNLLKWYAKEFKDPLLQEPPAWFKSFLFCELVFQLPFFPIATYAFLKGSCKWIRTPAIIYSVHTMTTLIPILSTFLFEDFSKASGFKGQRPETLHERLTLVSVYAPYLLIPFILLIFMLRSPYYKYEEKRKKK

[1] = test system: p-eIF2α, eIF2A, p-PERK, BiP in HEK293T cells; assay: Western blot of ISR-related proteins in HEK293T cells; format: cell-based, human; details: HEK293T, 0.1, 1, 10, 100 nM, 16 h (overnight)
Description: Huma n e mbryon ic kidn ey (HEK) 293T ce lls (ATCC # C RL- 321 6) were ge nerously dona ted by th e Ca mpb ell Lab (UT Dallas). Cell stock s were previously fr ozen at 1 million cells/ml in 90% fetal bov ine s erum (F BS, ThermoFisher #SH300880340) and 10% DMSO. Cells were grown in complete medium (10% FBS, 1% Pen- Strep in DMEM/F12 + GlutaMax (Gibco #10565- 018) in T-75 flasks (Greiner Bio- One #658175). Cells were maintained at 37 °C with 5% CO2 and passaged twice before being plated onto either 96-well or 6-well plates for ICC/spectrophotometry and western blotting, respectively. Cells were counted using the TC20 automated cell counter (Bio- R ad #1450102) using a 1:1 dilution of trypan blue (Gibco #15250061).
Concentr ations were transformed to […] values and data w as fit to a non- linear regression curve (inhibitor vs response, varia ble slop e , four p aram eters) constrain ed at top at 1 00, bott om at p -eIF2α levels at 300nM, […]
HEK cells were plated at 60,000 cells per well onto six-well plates (ThermoFisher # 351146) for 24 hours before being treated w ith F EM- 1689 overnight. Protein extractions and western blotting w as perfor med as previous ly published (10) . In brief, media fr om the cells was removed and cells were washed once with 1X
PBS. Cells were lysed in the well with radioimmunoprecipitation assay (RIPA) buffer consisting of 25 mM Tris, 150 mM NaCl, 0.1% SDS, 0.5% Na deoxycholate, 1% Triton X-100 with pr otease and phosphatas e inhibitor cocktails (Sigma Aldrich P8340, P5726, P0044 – 1:100 each). Cells were centr ifuged at 4 °C at 14,000 rpm for 10 min. The supernatant was used for downstream analysis. Protein was quantif ied using the Pierce BC A Protein Assay kit (Thermo Scientific, #23225) according to the manufacturer’s instructions.
Prote in samp les were de na tured usin g 4X L aem mli Sa mple buff er (BioR ad #1 610 747) and h eat ed at 95 °C for 5 min. 20 µg of protein samples were loaded onto 4- 20% Stain- Free Criterion TGX gels (BioRad #5678094). Gels were run in Tris/Glycine/SDS running buffer ( BioRad #1610772) at 120V for roughly 1.5 hours. St ain- Free gels wer e activated for 5 min pr ior to t he transf er step. Protein was transferred for 10 min onto low fluorescence poly vinylidene difluor ide (PVDF ) using a TransBlot Transfer kit (BioRad #1704275) and a Transblot Turbo transfer system (BioRad). Onc e transferred, total protein was imaged immediately using a ChemiDoc MP system (BioRad). Blots were allowed to dry for 5 min and were blocked with 5% non- fat milk in Tr is buffered saline (T BS)-Tween 20 (0.05%). Antibodies were diluted in 1% non- fat m ilk in TBS- Twe en 20. Primary ant ibo dies used in this st udy w ere: p- eIF 2α (1:1000, C ell Signaling #3398), t-eIF2α […]

[2] = test system: p-ACC in mouse DRG neurons; assay: p-ACC immunocytochemistry in cultured DRG neurons; format: cell-based; details: 16 h; FEM-1689 10, 100, 1,000 nM; A769662 100 µM; wild-type and TMEM97KO neurons
Description: The ICC protocol was based on a previously published protocol ([76]). […] Cells were blocked with 10% normal goat serum (NGS) in PBS-triton X (0.1%). […] Antibodies were incubated at 4 °C overnight. […] It was washed with PBS twice. […] Images were analyzed using Olympus CellSens. […] Number of cells analyzed are detailed in SI Appendix, Tables S3 and S4. […]
T his BSA gradient containing the cells was centrifuged at 900g for 5 min at room temperatur e.
The pellet containing the cells was resuspended in Br ainPhys media (STEMCell #05790) containing 2% […]
1% Gluta Max (Gibco # 350 5 0061). Hu man DRG ne uron s were plated a nd grown o n glass coverslips coate d with po ly-D-lysine (Sigma #P7405). C ultured D RG neurons were plated for 24 hours before being treated.
Methylglyoxal (Sigma- Aldrich #M0252) and F EM- 1689 were serially diluted in media.
Mouse samples - DRG cultures […]
anesthesia and decapitated. […]
section above with minor differences.
Mouse DRG neurons were grown in
SAS-0132 and DKR-1677 were […]
dissolved in 100% DMSO to a final concentr ation of 200mM and stored at - 20 °C. and DKR-1677 were serially diluted in media. Untreated media was completely replaced with media containing each compound. […]
Slides were […]
incubated with 1:2 diluted hydrogen peroxide in distilled water for 10 min at r oom temper ature and washed twice in distilled water. […]

M1 = M1 (Homo sapiens, UniProt P11229); assay: PDSP competitive binding assay; details: 10 µM test article; read-out: Ki: primary assay inhibition of radioligand binding, M1
Chain of M1 (P11229 whole entry): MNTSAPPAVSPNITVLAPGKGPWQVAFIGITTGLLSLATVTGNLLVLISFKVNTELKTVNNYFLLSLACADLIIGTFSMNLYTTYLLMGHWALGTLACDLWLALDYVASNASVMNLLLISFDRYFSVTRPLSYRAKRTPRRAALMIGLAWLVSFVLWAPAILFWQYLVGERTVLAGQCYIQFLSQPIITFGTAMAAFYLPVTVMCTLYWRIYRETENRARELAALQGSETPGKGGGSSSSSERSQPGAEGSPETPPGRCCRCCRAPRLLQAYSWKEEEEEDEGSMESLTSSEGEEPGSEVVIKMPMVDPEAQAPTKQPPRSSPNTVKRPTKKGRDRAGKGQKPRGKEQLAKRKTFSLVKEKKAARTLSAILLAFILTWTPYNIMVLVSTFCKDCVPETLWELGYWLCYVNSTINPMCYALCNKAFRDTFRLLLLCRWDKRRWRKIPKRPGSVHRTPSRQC

5HT2B = 5HT2B (Homo sapiens, UniProt P41595); assay: PDSP competitive binding assay; details: 10 µM test article; read-out: Ki: primary assay inhibition of radioligand binding, 5HT2B
Chain of 5HT2B (P41595 whole entry): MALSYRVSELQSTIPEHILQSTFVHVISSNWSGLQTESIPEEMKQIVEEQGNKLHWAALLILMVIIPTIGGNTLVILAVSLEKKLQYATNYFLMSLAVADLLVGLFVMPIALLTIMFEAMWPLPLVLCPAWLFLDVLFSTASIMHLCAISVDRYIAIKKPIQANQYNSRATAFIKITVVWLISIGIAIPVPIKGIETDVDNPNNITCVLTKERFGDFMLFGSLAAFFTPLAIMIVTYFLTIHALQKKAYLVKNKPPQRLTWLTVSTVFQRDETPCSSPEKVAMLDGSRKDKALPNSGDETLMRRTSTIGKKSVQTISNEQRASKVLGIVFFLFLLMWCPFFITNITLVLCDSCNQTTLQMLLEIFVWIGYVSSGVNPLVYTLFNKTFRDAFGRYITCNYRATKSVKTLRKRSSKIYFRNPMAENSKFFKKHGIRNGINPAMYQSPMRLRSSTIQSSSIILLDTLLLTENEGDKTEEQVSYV

Chain of hERG (Q12809 whole entry): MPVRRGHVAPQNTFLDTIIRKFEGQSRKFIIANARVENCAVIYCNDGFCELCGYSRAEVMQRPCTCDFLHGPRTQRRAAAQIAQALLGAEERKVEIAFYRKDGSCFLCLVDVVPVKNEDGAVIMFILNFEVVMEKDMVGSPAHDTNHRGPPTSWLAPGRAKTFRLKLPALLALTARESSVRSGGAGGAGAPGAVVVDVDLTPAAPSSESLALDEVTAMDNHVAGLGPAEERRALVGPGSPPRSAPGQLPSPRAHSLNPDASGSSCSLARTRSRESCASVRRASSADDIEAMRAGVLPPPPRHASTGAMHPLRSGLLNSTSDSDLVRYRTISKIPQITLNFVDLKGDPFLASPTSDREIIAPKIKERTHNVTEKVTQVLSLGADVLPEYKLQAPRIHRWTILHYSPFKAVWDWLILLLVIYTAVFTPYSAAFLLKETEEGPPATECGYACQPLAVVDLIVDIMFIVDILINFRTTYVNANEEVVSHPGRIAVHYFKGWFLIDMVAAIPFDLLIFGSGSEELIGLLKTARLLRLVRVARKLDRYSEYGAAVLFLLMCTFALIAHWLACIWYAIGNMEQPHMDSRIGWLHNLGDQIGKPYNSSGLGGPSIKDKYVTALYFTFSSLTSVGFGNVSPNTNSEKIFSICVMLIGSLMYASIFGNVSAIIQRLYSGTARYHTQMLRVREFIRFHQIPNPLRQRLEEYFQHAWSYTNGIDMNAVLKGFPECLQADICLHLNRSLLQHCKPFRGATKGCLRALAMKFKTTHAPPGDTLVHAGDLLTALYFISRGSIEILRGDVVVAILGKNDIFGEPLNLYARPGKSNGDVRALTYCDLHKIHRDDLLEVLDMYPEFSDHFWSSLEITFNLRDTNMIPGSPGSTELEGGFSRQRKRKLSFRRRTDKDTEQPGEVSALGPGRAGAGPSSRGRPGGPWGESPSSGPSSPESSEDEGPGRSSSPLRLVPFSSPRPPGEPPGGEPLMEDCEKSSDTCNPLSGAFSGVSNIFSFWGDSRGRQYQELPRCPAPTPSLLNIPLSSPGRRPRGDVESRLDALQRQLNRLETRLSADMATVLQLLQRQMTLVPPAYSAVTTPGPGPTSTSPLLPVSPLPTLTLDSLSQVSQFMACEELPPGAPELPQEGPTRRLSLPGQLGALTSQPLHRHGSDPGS

Question: Which results are given for `OCCCN1CC[C@@H]2C[C@H]1c1cc(-c3ccc(C(F)(F)F)cc3)ccc12` [FEM-1689]?
Answer: LogKi, HERG (hERG; dose response curve, given as LogKi with negative sign): -6.08; Ki (hERG; dose response curve, read-out: Ki, HERG): 839 nM; Ki (hERG; single determination, read-out: hERG Ki): 839 nM; inhibition at 10 µM (Alpha2c): < 50%; inhibition at 10 µM (5HT2C): < 50%; Ki (σ2R/TMEM97): 11.2 nM; Ki (σ2R/TMEM97; read-out: σ2R/TMEM97 Ki, averages ± SD): 17 ± 8 nM; BiP level (western blot) [1]: remained stable; also recorded: remained unchanged; eIF2A level (western blot) [1]: concentration-dependent reduction; also recorded: significant reduction; p-PERK level (western blot) [1]: concentration-dependent reduction; also recorded: significant reduction; p-eIF2α level (western blot) [1]: concentration-dependent reduction; also recorded: significant reduction; p-ACC levels [2]: remained unchanged; also recorded: no change in p-ACC levels; inhibition at 10 µM (M1): < 50%; inhibition at 10 µM (5HT2B): < 50%

From paper PMC10756276, “Highly specific σ2R/TMEM97 ligand FEM-1689 alleviates neuropathic pain and inhibits the integrated stress response” (Proceedings of the National Academy of Sciences of the …, 2023)
